Data taken from patent publication US20080146555A1, “Uses of Kinase Inhibitors and Compositions Thereof” (GPC Biotech, Inc, priority 2004, published 2008).
Where a name gives a salt, the structure may show the parent alone. Read-outs that look alike come from different tables or passages of the source.

Experiments:
Cdk2 = Cdk2 (Homo sapiens, UniProt P24941); experiment: Cdk2 inhibition; type: biochemical
Text: Further inhibition results for subject compounds of the invention against other CDKs and further kinases are shown in Table 5, Table II and described in Example 6.
Table 3, Table 4, Table 5 and Table II show the results obtained for inhibition of a broad range of such kinases for subject compounds of the invention.

[1] = test system: adriamycin resistant cell line (ADR-res); experiment: NCI panel, adriamycin resistant cell line, SRB assay; type: cell-based; settings: Homo sapiens, 48 h
Text: The evaluation of compounds at the National Cancer Institute in their panel of 60 cell lines provides a wealth of information regarding efficacy in a wide range of tumor types and genetic backgrounds. Included within this panel are cell lines derived from leukemia, melanoma and cancers of the lung, colon, brain, ovary, breast, prostate and kidney. Use of this panel provides a measure of the efficacy of compounds in cells with alterations in many genes that are associated with neoplastic transformation including p53 and Her2/Neu as well as those involved in metabolism and those which confer multi-drug resistance. The data generated in these cell lines with the protocol described below can be used to evaluate the activity of compounds.
Cells were grown in RPMI-1640 10% FCS and plated in 96 well micro-titer plates at densities ranging from 5,000 to 40,000 cells/well. The plates were incubated for 24 hours at 37° C., 5% CO2 for 24 hours. Media containing twice the desired final concentration of the compound (5 doses spanning 4 logs) was prepared and 100 μl was added to each well containing 100 μl media plus cells to yield the desired final concentration. The plates were then incubated for an additional 48 hours.
The effect of the compound on cellular viability was determined with the Sulforhodamine B (SRB) assay, which measures total protein. Cells were fixed with cold TCA to a final concentration of 10% and incubated at 4° C. for 60 minutes. The supernatant was discarded and the plates were washed five times with water and air-dried. SRB solution at […] in 1% acetic acid was added to each well and the plates were incubated for 10 minutes at room temperature. The plates were washed five times with 1% acetic acid and air-dried. The bound stain was solubilized with 10 mM trizma base and the absorbance was read on a plate reader at […].

c-Kit = target: T1, c-Kit (Homo sapiens, UniProt P10721); experiment: c-Kit kinase assay (ProQinase); type: biochemical; settings: read-out: KIT Inhibition (IC50)
T1 construct: purchased ProQinase (printed 'ProQuinase', Freiburg, Germany)
Description: • c-kit can be assayed, for example, using the PanQinase Activity Assay or ProQuinase (Freiburg, Germany). Briefly:
Assay buffer-60 mM HEPES-NaOH, pH 7.5, 3 mM MgCl2, 3 mM MnCl2, 3 uM Na-orthovanadate, 1.2 mM DTT, 50 ug/ml PEG 20000, 1 uM [γ-^33P] ATP (approx. 5×10^5 cpm per well) • Reaction cocktail-20 ul assay buffer, 5 ul ATP, 5 ul test compound (in 10% DMSO), 10 ul substrate/10 ul enzyme=100 ng (pre-mixed). • The reaction cocktails are incubated at 30° C. for 80 minutes and terminated with addition of 50 ul 2% H3PO4. The plates are aspirated and washed two times with 200 ul H2O or 200 ul NaCl. Incorporation of radiolabelled substrate is determined with a microplate scintillation counter such as described in the Technical Note above.

Yes = target: T2, Yes (Homo sapiens, UniProt P07947); experiment: Yes kinase assay; type: biochemical
T2 construct: purchased Upstate 14-478
Description: • 1. 2.5× Reaction Buffer: 20 mM MOPS, 0.5 mM EDTA. • 2. Enzyme Dilution Buffer (EDB): 20 mM MOPS pH 7.0, 1 mM EDTA, 0.01% Brij-35, 5% glycerol, 0.1% β-mercaptoethanol, 1 mg/ml BSA. • 3. Yes, active: Dilute to 0.4 ng-4 ng/μl with EDB. Use 2.5 μl per assay point. • 4. Poly(Glu-4-Tyr) substrate: Prepare a 1 mg/ml stock solution. Use 2.5 μl per assay point for a final concentration of 0.1 mg/ml per assay point. • 5. [γ-^32P]ATP: Stock 1 mCi/100 μl (3000 Ci/mmol, obtained from PerkinElmer, Cat. # BLU002A). Make 10 μl aliquots (100 μCi/vial). Before starting the assay, dilute an aliquot to 1 μCi/μl with 90 μl of 75 mM MgCl2 and 500 μM cold ATP in 20 mM MOPS, pH 7.2, 25 mM β-glycerol phosphate, 5 mM EGTA, 1 mM sodium orthovanadate, 1 mM dithiothreitol.
• 1. Add 10 μl of 2.5× Reaction Buffer per assay. • 2. Add 2.5 μl of Poly(Glu-4-Tyr) substrate (0.1 mg/ml). • 3. Add 2.5 μl of Yes, active (1 ng-10 ng). • 4. Add […] of the diluted [γ-^32P]ATP solution. • 5. Incubate for 10 minutes at 30° C. • 6. Transfer a 20 μl aliquot onto the center of a 2 cm×2 cm P81 paper. • 7. Wash the assay squares three times for 5 minutes with 0.75% phosphoric acid. • 8. Wash the assay squares once for 5 minutes with acetone. • 9. Transfer the assay squares to vial and add 5 ml scintillation cocktail. • 10. Read in scintillation counter. Compare cpm of enzyme samples to cpm of control samples that contain background control.

[2] = read-out: YES1 Inhibition (IC50)

T2 sequence (P07947 whole entry): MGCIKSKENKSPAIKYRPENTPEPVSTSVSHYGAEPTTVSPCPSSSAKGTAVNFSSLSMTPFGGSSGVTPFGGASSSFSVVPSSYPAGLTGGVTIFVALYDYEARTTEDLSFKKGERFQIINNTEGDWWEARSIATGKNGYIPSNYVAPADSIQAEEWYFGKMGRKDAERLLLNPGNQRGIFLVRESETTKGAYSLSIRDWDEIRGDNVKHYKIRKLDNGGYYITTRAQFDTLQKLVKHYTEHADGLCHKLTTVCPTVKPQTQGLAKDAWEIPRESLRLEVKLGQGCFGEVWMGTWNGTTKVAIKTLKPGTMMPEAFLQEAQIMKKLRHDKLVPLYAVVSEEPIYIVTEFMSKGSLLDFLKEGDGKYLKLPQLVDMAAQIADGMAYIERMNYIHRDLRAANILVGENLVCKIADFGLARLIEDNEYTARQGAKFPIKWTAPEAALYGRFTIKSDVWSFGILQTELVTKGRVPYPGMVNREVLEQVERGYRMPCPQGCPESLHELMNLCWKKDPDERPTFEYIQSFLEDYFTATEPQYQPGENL
T1 sequence (P10721 26-976): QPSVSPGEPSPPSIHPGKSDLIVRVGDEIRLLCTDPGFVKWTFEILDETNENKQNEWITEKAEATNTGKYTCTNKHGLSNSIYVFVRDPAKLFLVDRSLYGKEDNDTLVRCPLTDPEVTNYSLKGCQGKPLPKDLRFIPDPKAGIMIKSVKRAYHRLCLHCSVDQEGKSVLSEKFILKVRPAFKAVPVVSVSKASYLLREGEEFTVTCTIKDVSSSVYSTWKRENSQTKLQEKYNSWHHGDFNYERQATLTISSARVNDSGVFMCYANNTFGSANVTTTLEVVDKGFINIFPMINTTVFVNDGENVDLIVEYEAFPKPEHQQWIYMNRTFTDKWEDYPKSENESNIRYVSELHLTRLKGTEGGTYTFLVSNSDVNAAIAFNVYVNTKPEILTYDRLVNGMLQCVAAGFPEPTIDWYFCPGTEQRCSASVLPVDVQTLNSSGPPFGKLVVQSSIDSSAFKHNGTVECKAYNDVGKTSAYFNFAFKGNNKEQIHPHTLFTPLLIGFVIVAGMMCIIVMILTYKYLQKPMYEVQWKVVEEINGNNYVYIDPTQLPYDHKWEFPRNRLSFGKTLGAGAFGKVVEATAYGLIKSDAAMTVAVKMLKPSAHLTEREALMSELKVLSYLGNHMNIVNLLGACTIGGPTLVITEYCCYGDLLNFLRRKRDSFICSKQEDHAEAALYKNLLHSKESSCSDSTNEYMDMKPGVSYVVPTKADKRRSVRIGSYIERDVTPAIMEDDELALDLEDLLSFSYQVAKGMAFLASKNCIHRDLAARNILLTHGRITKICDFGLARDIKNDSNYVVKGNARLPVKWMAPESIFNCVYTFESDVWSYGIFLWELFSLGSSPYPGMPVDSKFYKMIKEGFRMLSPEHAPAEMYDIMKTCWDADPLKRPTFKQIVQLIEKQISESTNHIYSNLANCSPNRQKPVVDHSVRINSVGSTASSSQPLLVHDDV

Compound	IC50 (Cdk2)	IC50 [1]	IC50 (c-Kit)	IC50 (Yes; [2])	IC50 (Yes; kinase panel, 10 μM ATP, read-out: Yes IC50)
CC(C)N1CCN(C(=O)COc2ccc(-c3n[nH]c4c3C(=O)c3c(NC(=O)NN5CCOCC5)cccc3-4)cc2)CC1 [Compound A37]	< 50 nM	< 100000 nM	< 500 nM	< 50 nM	
COCCN1CCN(Cc2ccc(-c3n[nH]c4c3C(=O)c3c(NC(=O)NN5CCOCC5)cccc3-4)cc2)CC1 [Compound B16, N-[3-(4-{[4-(2-methoxyethyl)piperazinyl]methyl}phenyl)-4-oxoindeno[2,3-d]pyrazol-5-yl](morpholin-4-ylamino)carboxamide dihydrochloride]	< 5 nM	< 10000 nM	< 500 nM	< 50 nM	< 100 nM
